One series can be described thus: Bioavailability studies. In kind it is in vivo, mice (C57BL/6). The settings on record: male, mouse, plasma; C57BL/6 mice; single intravenous dose 1 mg/kg and single oral dose 10 mg/kg. As to the method:
Male mice (C57BL/6 or CD1) or Wistar rats of 8-9 weeks old were used. For each test compound, two groups of 3 animals each were used. One group was administered a single intravenous dose of 1 mg/kg (vehicle 100% DMSO) through the tail vein and the other group was administered a single oral dose of 10 mg/kg through gavage needle. The group that was administered an oral dose was fasted overnight. Blood samples were collected after 0.083, 0.25, 0.5, 1, 2, 4, 6, 8 and 24 hours following intravenous administration, and after 0.25, 0.5, 1, 2, 4, 6, 8 and 24 hours following oral administration. Blood samples were taken from saphenous vein. 0.2% EDTA was used as the anticoagulant. The samples were analyzed by a discovery grade bioanalytical method developed for the estimation of test compound in plasma, using an LC-MS/MS system.

Series [1] is described as follows: Bidirectional permeability assay (Caco-2 cells). The class given is in vitro ADME. The note with it: human, 10 μM in FaSSIF buffer; for Papp A→B at 120 min, 10 μM: Caco-2, pH 7.4, absorptive direction (A2B); for Papp B→A at 120 min, 10 μM: Caco-2, pH 7.4, secretory direction (B2A). From the text:
HepaRG-Based Assay Protocol

The next series has as its target T1, Human IBAT (Homo sapiens, UniProt Q12908).
T1 construct: expressed in transfected cells; Puromycin selection
T1 sequence (Q12908 1-348): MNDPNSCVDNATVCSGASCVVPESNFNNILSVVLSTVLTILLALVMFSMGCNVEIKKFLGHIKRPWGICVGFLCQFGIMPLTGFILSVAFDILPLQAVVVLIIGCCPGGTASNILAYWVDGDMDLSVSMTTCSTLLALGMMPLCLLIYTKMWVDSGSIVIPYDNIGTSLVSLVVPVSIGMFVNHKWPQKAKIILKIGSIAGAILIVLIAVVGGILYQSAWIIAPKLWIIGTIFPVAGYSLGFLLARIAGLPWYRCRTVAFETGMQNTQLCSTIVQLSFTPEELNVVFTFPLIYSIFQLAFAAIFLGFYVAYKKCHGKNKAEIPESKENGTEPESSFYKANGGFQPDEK
Nature of the series: IBAT (h/m) assay, human IBAT-overexpressing cells, 3H-taurocholic acid uptake. The class given is cell-based. The settings on record: highest test concentration 10 μM, 20 minutes, read-out: hIBAT IC50. The protocol:
10,000 cells (Human or Mouse IBAT-overexpressing cells) were seeded in 96-wells plate (Corning CLS3809) in 200 μL MEM-alpha medium (Gibco 12571-063) supplemented with 10% FBS (Gibco 10438026) containing Puromycin (Gibco A1113803) (10 μg/mL) and incubated at 37° C. in 5% CO2 for 48 hours. After incubation, media was decanted from the wells and cells were washed two times with 300 μL of basal MEM-alpha medium (FBS-free). After decanting basal MEM-alpha medium each time, plates were tapped against paper towel to ensure maximum removal of residual media. Test inhibitor dilutions (highest test concentration being 10 μM, 3-fold serial dilution, 10 points) prepared in DMSO (Sigma D2650) were added in incubation mix (maintaining 0.2% final DMSO concentration) containing 0.25 μM 3H-taurocholic acid (ARC ART-1368) and 5 μM of cold taurocholic acid (Sigma T4009). 50 μL of incubation mix containing test inhibitors was then added to the wells (in duplicate) and the plates were incubated for 20 minutes in a CO2 incubator at 37° C. After incubation, the reaction was stopped by keeping the plates on ice water mix for 2-3 minutes and then the incubation mix was aspirated completely from the wells. The wells were washed two times with 250 μL of chilled unlabeled 1 mM taurocholic acid dissolved in HEPES (Gibco 15630080)-buffered (10 mM) HBSS (Gibco 14175079) (pH 7.4). The plates were tapped against a paper towel after every wash to ensure maximum removal of blocking buffer.
100 μL of MicroScint-20 (PerkinElmer 6013621) was added to the wells and kept overnight at room temperature before reading the plates in TopCount NXT™ Microplate Scintillation and Luminescence Counter from PerkinElmer under 3H Test protocol (set at 120 seconds reading time per well).
(§1) All test compounds were provided in powder form at room temperature. 10 mM DMSO stocks of the test compounds were prepared, aliquoted and stored at −20° C. From the 10 mM DMSO stock of the compounds, a 3-fold serial dilution in DMSO was prepared to get a total of 10 dilutions of the test compounds. 0.5 μL of this dilution in DMSO was added to 250 μL of FBS-free basal media containing 3H-taurocholic acid and cold taurocholic acid to prepare the incubation mixture.

The test system of the next series is OATP KO mice. Nature of the series: Effect of LBAT selective compounds on serum bile acid levels in OATP KO mice. The class given is in vivo. The settings on record: for effect on serum bile acid levels: oral administration, FIGS. 1 to 4. From the text:
Male OATP KO mice (Oatp1a/1b cluster knockout mice, Taconic, USA) aged 8 to 9 weeks were used in the studies. After completion of quarantine and acclimatization period, animals were randomized based on body weight into experimental groups (n=4 mice in each). On the experimental day, a baseline blood sample was collected followed by oral dosing of vehicle (0.5% CMC, 0.1% Tween 80) or compound of Example 3, 6, 13 or 15 at the indicated doses. Blood samples were then collected at various time points after dose (indicated in each graph). Blood was allowed to clot, and serum was collected by centrifugation at 3000 g, 4° C. for 15 minutes and stored at −80° C. for further analysis. The total bile acid concentration in each serum sample was determined by using the CELL BIOLABS Total Bile Acids kit (STA631) according to manufacturer's instructions. Mean±SEM, n=4.

The next series has as its target T2, Human LBAT (Homo sapiens, UniProt Q14973).
T2 construct: expressed in transfected cells; Geneticin selection
T2 sequence (Q14973 1-349): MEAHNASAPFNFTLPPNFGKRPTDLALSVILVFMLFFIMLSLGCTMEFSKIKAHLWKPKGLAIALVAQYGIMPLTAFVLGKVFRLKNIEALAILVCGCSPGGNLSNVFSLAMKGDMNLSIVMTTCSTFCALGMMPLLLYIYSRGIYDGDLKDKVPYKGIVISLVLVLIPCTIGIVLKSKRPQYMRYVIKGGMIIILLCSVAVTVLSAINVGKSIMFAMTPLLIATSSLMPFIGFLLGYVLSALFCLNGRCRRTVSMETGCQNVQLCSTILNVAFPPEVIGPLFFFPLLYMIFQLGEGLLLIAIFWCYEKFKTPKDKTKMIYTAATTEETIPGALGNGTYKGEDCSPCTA
The series is described as follows: LBAT (h/m) assay, human LBAT-overexpressing cells, 3H-taurocholic acid uptake. The note with it: 0.3 μM 3H-taurocholic acid and 7.5 μM cold taurocholic acid, 20 minutes, read-out: hLBAT IC50. In kind it is cell-based. The protocol: 20,000 cells (Human or Mouse LBAT-overexpressing cells) were seeded in 96-wells plate (Corning CLS3809) in 100 μL MEM-alpha medium (Gibco 12571-063) supplemented with 10% FBS (Gibco 10438026) containing Geneticin (Gibco 10131-027) (1 mg/mL) and incubated at 37° C. in 5% CO2 for 24 hours. After incubation, media was decanted from the wells and cells were washed two times with 300 μL of basal MEM-alpha medium (FBS-free). After decanting basal MEM-alpha medium each time, plates were tapped against paper towel to ensure maximum removal of residual media.
For human LBAT, incubation mix was prepared by adding test inhibitor dilutions (3-fold serial dilution in DMSO (Sigma D2650), 10 points) in MEM-alpha (without FBS) containing 0.3 μM 3H-taurocholic acid (ARC ART-1368) and 7.5 μM cold taurocholic acid (Sigma T4009) (maintaining 0.2% final DMSO concentration). For mouse LBAT, incubation mix was prepared by adding test inhibitor dilutions (3-fold serial dilution in DMSO, 10 points) in MEM-alpha (without FBS) containing 0.3 μM 3H-taurocholic acid and 25 μM cold taurocholic acid maintaining 0.2% final DMSO concentration).
50 μL of incubation mix containing test inhibitors was then added to the wells (in duplicate) and the plates were incubated for 20 minutes in a CO2 incubator at 37° C. After incubation, the reaction was stopped by keeping the plates on ice water mix for 2-3 minutes and then the incubation mix was aspirated completely from the wells. The wells were washed two times with 250 μL of chilled unlabeled 1 mM taurocholic acid dissolved in HEPES (Gibco 15630080)-buffered (10 mM) HBSS (Gibco 14175079) (pH 7.4). The plates were tapped against a paper towel after every wash to ensure maximum removal of blocking buffer.
100 μL of MicroScint-20 (PerkinElmer 6013621) was added to the wells and kept overnight at room temperature before reading the plates in TopCount NXT™ Microplate Scintillation and Luminescence Counter from PerkinElmer under 3H Test protocol (set at 120 seconds reading time per well, with normal plate orientation).
as §1

The record followed here is US11708340B2, “Benzothia(di)azepine compounds and their use as bile acid modulators” (Albireo AB, priority 2019, dated 2023).

The term bioavailability denotes the share of a dose that reaches the circulation, judged against a reference dose that is usually intravenous. A higher bioavailability goes with good availability. A word on the Papp A→B: it is the apparent permeability from the apical to the basolateral side of a cell layer. A low value points to poor permeation. Broadly, the Papp B→A is how fast a substance crosses the layer from the basolateral side. A word on the IC50: it is the concentration that gives 50% inhibition.

`CCCC[C@@H]1CN(c2ccccc2)c2cc(SC)c(O/C=C(\F)C(=O)O)cc2S(=O)(=O)C1` (single isomer, unassigned) [Example 6] came in with a bioavailability in the series “Bioavailability studies” of 26%. In series [1], this molecule came in with a Papp A→B at 120 min, 10 μM of 2.7 ×10⁻⁶ cm/s and a Papp B→A at 120 min, 10 μM of 5.5 ×10⁻⁶ cm/s. The concentration for half-maximal inhibition (IC50) at Human IBAT was found to be 1440 nM. The “effect on serum bile acid levels” value in the series with OATP KO mice is “increased serum bile acid levels”. In addition, the IC50 at Human LBAT turned out to be 1.4 nM.
On to `CCCCC1CN(c2ccccc2)c2cc(SC)c(O/C=C(\F)C(=O)O)cc2S(=O)(=O)N1` (stereo not drawn) [Example 10, (Z)-3-((3-butyl-7-(methylthio)-1,1-dioxido-5-phenyl-2,3,4,5-tetrahydro-1,2,5-benzothiadiazepin-8-yl)oxy)-2-fluoroacrylic Acid], for which, in series [1], the apical-to-basolateral permeability (Papp A→B) at 120 min, 10 μM is 0.5 ×10⁻⁶ cm/s and the basolateral-to-apical permeability (Papp B→A) at 120 min, 10 μM came out at 1.9 ×10⁻⁶ cm/s. On Human IBAT, the IC50 amounted to 1140 nM. The half-inhibitory concentration (IC50) at Human LBAT was 1 nM.
In turn, `CCCC[C@H]1CN(c2ccccc2)c2cc(SC)c(O/C=C/C(=O)O)cc2S(=O)(=O)C1` (single isomer, unassigned) [Example 3] registered a bioavailability in “Bioavailability studies” of 50%. In series [1], this molecule yielded a Papp A→B at 120 min, 10 μM of 24 ×10⁻⁶ cm/s and a Papp B→A at 120 min, 10 μM of 18.8 ×10⁻⁶ cm/s. Further, the “effect on serum bile acid levels” value in the series with OATP KO mice was “increased serum bile acid levels”. At Human LBAT, the half-inhibitory concentration (IC50) worked out at 4.8 nM.
As to `CCCC[C@H]1CN(c2ccccc2)c2cc(SCC)c(O/C=C/C(=O)O)cc2S(=O)(=O)N1C` (single isomer, unassigned) [Example 18], in series [1], the apparent permeability from apical to basolateral (Papp A→B) at 120 min, 10 μM worked out at 15 ×10⁻⁶ cm/s and the basolateral-to-apical permeability (Papp B→A) at 120 min, 10 μM stood at 9.7 ×10⁻⁶ cm/s. In addition, at Human IBAT, the IC50 was 5280 nM. Further, at Human LBAT, the IC50 worked out at 2.4 nM.
In the same order, the values of `CCCCC1CN(c2ccccc2)c2cc(SC)c(O/C=C/C(=O)O)cc2S(=O)(=O)C1` (racemic) [Example 1, (E)-3-((3-butyl-7-(methylthio)-1,1-dioxido-5-phenyl-2,3,4,5-tetrahydro-1,5-benzothiazepin-8-yl)oxy)acrylic Acid] are 25.6 ×10⁻⁶ cm/s, 19.1 ×10⁻⁶ cm/s, at least 10000 nM and 9.9 nM.
For `CCCCC1CN(c2ccc(F)cc2)c2cc(SCC)c(O/C=C/C(=O)O)cc2S(=O)(=O)N1C` (racemic) [Example 23, (E)-3-((3-butyl-7-(ethylthio)-5-(4-fluorophenyl)-2-methyl-1,1-dioxido-2,3,4,5-tetrahydro-1,2,5-benzothiadiazepin-8-yl)oxy)acrylic Acid] the same measures were 12.6 ×10⁻⁶ cm/s, 9.3 ×10⁻⁶ cm/s, 3060 nM and 1 nM.
In the case of `CCCC[C@@H]1CN(c2ccccc2)c2cc(SC)c(O/C=C(\F)C(=O)O)cc2S(=O)(=O)N1C` (single isomer, unassigned) [Example 13], in “Bioavailability studies”, the bioavailability was found to be 61%. In series [1], the apical-to-basolateral permeability (Papp A→B) at 120 min, 10 μM is 3.1 ×10⁻⁶ cm/s. The Papp B→A at 120 min, 10 μM in series [1] was 9.6 ×10⁻⁶ cm/s. In addition, the 50% inhibitory concentration (IC50) was found to be 568 nM at Human IBAT and 0.6 nM at Human LBAT. In addition, the “serum bile acids levels” value with OATP KO mice (oral 30 mg/kg, within one hour after dosing) was “about 100 μmol/L”. Moreover, the “effect on serum bile acid levels” value in the series with OATP KO mice was “increased serum bile acids in a dose-dependent manner”.
`CCCC[C@H]1CN(c2ccccc2)c2cc(SC)c(O/C=C/C(=O)O)cc2S(=O)(=O)N1C` (single isomer, unassigned) [Example 15]: the bioavailability in “Bioavailability studies” was 50%. Further, in series [1], the Papp A→B at 120 min, 10 μM stood at 14.1 ×10⁻⁶ cm/s and the apparent permeability from basolateral to apical (Papp B→A) at 120 min, 10 μM was determined as 13 ×10⁻⁶ cm/s. Further, the “effect on serum bile acid levels” value in the series on OATP KO mice is given as “increased serum bile acid levels”. In addition, the half-inhibitory concentration (IC50) at Human LBAT was found to be 2.2 nM.
In series [1], `CCCCC1CN(c2ccccc2)c2cc(SC)c(O/C=C(\F)C(=O)O)cc2S(=O)(=O)C1` (stereo not drawn) [Example 4, (Z)-3-((3-butyl-7-(methylthio)-1,1-dioxido-5-phenyl-2,3,4,5-tetrahydro-1,5-benzothiazepin-8-yl)oxy)-2-fluoroacrylic Acid] displayed a Papp A→B at 120 min, 10 μM of 2.4 ×10⁻⁶ cm/s and a Papp B→A at 120 min, 10 μM of 6 ×10⁻⁶ cm/s. Besides, on Human IBAT, the half-maximal inhibitory concentration (IC50) turned out to be 1510 nM. For the same molecule, on Human LBAT, the half-inhibitory concentration (IC50) amounted to 1.9 nM.
Turning to `CCCC[C@H]1CN(c2ccc(F)cc2)c2cc(SC)c(O/C=C/C(=O)O)cc2S(=O)(=O)C1` (single isomer, unassigned) [Example 27], the IC50 at Human IBAT is over 10000 nM; on Human LBAT, 354 nM.
